According to paper PMC5736435 (European journal of medicinal chemistry, 2017):
Values after ≈ are worked out from the molar mass of the structure shown. Values belong to the compound of their own block, whether it stands above or below them.

Legend:
[1] = test system: human colorectal cells (HRT-18); test: In vitro cytotoxicity; format: cell-based; conditions: for safety margin: human, 2 h; for concentration not toxic to HRT-18 cells: MTS assay, two hours incubation
[2] = In vivo pharmacokinetics in rats; conditions: rat
PBS solubility screen = format: physicochemical
[3] = phosphate-buffered saline; cited from earlier work
BHK-21 = test: In vitro cytotoxicity; format: cell-based, hamster; conditions: MTT assay
MRSA USA300 [4] = format: cell-based, Staphylococcus aureus; conditions: MRSA USA300, fourteen passages over two weeks
MRSA (2658 RCMB) = test: MIC by broth microdilution against MRSA clinical isolate 2658 RCMB; format: cell-based; conditions: Staphylococcus aureus
S. aureus NRS107 = test: MIC by broth microdilution against mupirocin-resistant S. aureus NRS107; format: cell-based, Staphylococcus aureus; conditions: S. aureus NRS107, high-level resistance to mupirocin
S. aureus NRS119 [5] = test: MIC by broth microdilution against linezolid-resistant S. aureus NRS119; format: cell-based, Staphylococcus aureus; conditions: S. aureus NRS119, resistance to linezolid
S. aureus NRS384 = format: cell-based, Staphylococcus aureus; conditions: S. aureus NRS384, resistance to macrolides and tetracyclines
MRSA USA300 [6] = test: Time-kill assay against MRSA; format: cell-based, Staphylococcus aureus
S. aureus NRS119 [7] = conditions: cited from earlier work
[8] = in vivo; cited from earlier work

%F (oral bioavailability) ([2]; 25 mg/kg oral dose): not bioavailable orally
SMILES: CCCCc1ccc(-c2nc(C)c(/C(C)=N/NC(=N)N)s2)cc1 [Compound 1a, reference compound]
safety margin [1]: 32 ×MIC

solubility at 2 h (PBS solubility screen; Solubility limit): 2.2 µM (≈ 0.769 µg/mL)
SMILES: C/C(=N\NC(=N)N)c1sc(-c2ccc(-c3ccccc3)cc2)nc1C [Compound 1b, reference compound]
times less soluble than lead compound 1a [3]: 24 times

improvement in aqueous solubility relative to pyrimidine analogue 1c (PBS solubility screen): 43 times
SMILES: Cc1nc(-c2ccc(-c3ccccc3)cc2)sc1-c1nnc(NC(=N)N)o1 [Compound 22, 1-{5-(2-([1,1′-Biphenyl]-4-yl)-4-methylthiazol-5-yl)-1,3,4-oxadiazol-2-yl}guanidine]

SMILES: Cc1nc(-c2ccc(-c3ccccc3)cc2)sc1-c1nnc(NC(=N)N2CCOCC2)o1 [Compound 26, N-{5-(2-([1,1′-Biphenyl]-4-yl)-4-methylthiazol-5-yl)-1,3,4-oxadiazol-2-yl}morpholine-4-carboximidamide]
concentration not toxic to HRT-18 cells [1]: 256 µg/mL
tolerability against non-cancerous cell line BHK-21 (BHK-21): highly tolerable
shift in MIC over fourteen passages (MRSA USA300 [4]): No increase in MIC

SMILES: Cc1nc(-c2ccc(-c3ccccc3)cc2)sc1-c1nnc(NC(=N)N2CCN(C)CC2)o1 [Compound 27, N-{5-(2-([1,1′-Biphenyl]-4-yl)-4-methylthiazol-5-yl)-1,3,4-oxadiazol-2-yl}-4-methylpiperazine-1-carboximid-amide]
MIC (MRSA (2658 RCMB)): 1.1 µg/mL (≈ 2.39 µM)
growth inhibition (S. aureus NRS107): inhibited growth
growth inhibition (S. aureus NRS119 [5]): inhibited growth
growth inhibition (S. aureus NRS384): inhibited growth
MRSA CFU after 24 h (MRSA USA300 [6]; after 24 h, 4 × MIC, 37 °C): completely eradicated
mode of action, bacteriostatic or bactericidal (MRSA USA300 [6]; at the concentration tested (4 × MIC)): bactericidal
concentration not toxic to HRT-18 cells [1]: 512 µg/mL
safety margin [1]: more than 400 ×MIC
tolerability against non-cancerous cell line BHK-21 (BHK-21): highly tolerable
shift in MIC over fourteen passages (MRSA USA300 [4]): No increase in MIC
Cmax relative to MIC against MRSA (2658 RCMB) ([2]; in vivo, po, 25 mg/kg): nearly six-fold

SMILES: CC(=O)NC[C@H]1CN(c2ccc(N3CCOCC3)c(F)c2)C(=O)O1 [linezolid]
MIC (S. aureus NRS119 [7]): > 128 µg/mL

SMILES: CCC[C@H](NC(=O)[C@@H]1[C@H]2CCC[C@H]2CN1C(=O)[C@@H](NC(=O)[C@@H](NC(=O)c1cnccn1)C1CCCCC1)C(C)(C)C)C(=O)C(=O)NC1CC1 [telaprevir]
oral bioavailability [8]: ≤ 3%
